# ChEMBL document CHEMBL4118139, “Novel naphthyloxy derivatives - Potent histamine H3 receptor ligands. Synthesis and pharmacological evaluation” (Bioorg Med Chem, 2018)
# pIC50, pKi: −log10 of the molar value. Calls of active or inactive are those of the source. The calls are words filed in the database; no cut-off is given here.
# Experiments:
# Histamine H3 receptor [1] = target: T1, Histamine H3 receptor (Homo sapiens, UniProt Q9Y5N1); test: Displacement of [3H]N-alpha-methylhistamine from full length human H3 receptor expressed in HEK293 cell membranes after 90 mins
# HEK293 = test: Cytotoxicity against HEK293 cells assessed as reduction in cell viability after 72 hrs by MTS assay; assay type: cell-based; details: Homo sapiens, HEK293, 72 h
# IMR-32 = test: Cytotoxicity against human IMR32 cells assessed as reduction in cell viability after 72 hrs by MTS assay; assay type: cell-based; details: IMR-32, 72 h
# HepG2 = test: Cytotoxicity against human HepG2 cells assessed as reduction in cell viability after 72 hrs by MTS assay; assay type: cell-based; details: HepG2, 72 h
# Mus musculus [2] = test: Analgesic activity in ip dosed albino Swiss CD1 mouse assessed reduction in formalin-induced inflammatory pain by measuring reduction in time spent in licking treated prior to formalin injection measured at 0 to 5 mins post formalin injection; assay type: functional
# Mus musculus [3] = test: Anticonvulsant activity in ip dosed albino CF-1 mouse assessed as protection against subcutaneous pentylenetetrazole-induced seizures measured after 1 hr; assay type: functional; details: CF-1, 1 h
# Mus musculus [4] = test: Anticonvulsant activity in ip dosed albino CF-1 mouse assessed as protection against 32 mA current-induced seizure after 1 hr by 6 Hz psychomotor test; assay type: functional; details: CF-1, ip
# Mus musculus [5] = test: Anticonvulsant activity in ip dosed albino CF-1 mouse assessed as protection against 44 mA current-induced seizure after 0.25 hrs by 6 Hz psychomotor test; assay type: functional; details: CF-1, ip
# Mus musculus [6] = test: Analgesic activity in ip dosed albino Swiss CD1 mouse assessed reduction in formalin-induced inflammatory pain by measuring reduction in time spent in licking pretreated prior to formalin injection measured at 15 to 30 mins post formalin injection; assay type: functional
# Mus musculus [7] = test: Cognition enhancing effect in albino Swiss CD-1 mouse assessed as reversal of scopolamine-induced amnesia by measuring latency time at 15 mg/kg, ip treated 30 mins prior to acquisition trial followed by scopolamine challenge immediately after acquisition trial by passive avoidance test (reference value: 39.31 +/- 4.01 secs); assay type: functional
# Mus musculus [8] = test: Cognition enhancing effect in albino Swiss CD-1 mouse assessed as reversal of scopolamine-induced amnesia by measuring latency time at 30 mg/kg, ip treated 30 mins prior to acquisition trial followed by scopolamine challenge immediately after acquisition trial by passive avoidance test (reference value: 39.31 +/- 4.01 secs); assay type: functional
# Mus musculus [9] = test: Effect on spontaneous locomotor activity in ip dosed albino Swiss CD1 mouse assessed as inhibition of number of light beam crossings treated for 30 mins measured for next 30 mins in 10 min intervals; assay type: organism-based; details: in vivo, 0.5 h
# Histamine H3 receptor [10] = target: T1, Histamine H3 receptor; test: Displacement of […] from full length recombinant human H3 receptor expressed in HEK293 cell membranes after 90 mins by scintillation counting method
# CYP3A4 = CYP3A4 (Homo sapiens, UniProt P08684); test: Inhibition of CYP3A4 (unknown origin) at 25 uM by CYP3A4 P450-Glo assay; assay type: ADME
# Salmonella typhimurium [11] = test: Mutagenicity in Salmonella typhimurium TA100 assessed as increase in number of revertants at 1 uM after 90 mins by Ames test; assay type: toxicity, organism-based; details: salmonella enterica subsp. enterica serovar typhimurium, 1.5 h
# Salmonella typhimurium [12] = test: Mutagenicity in Salmonella typhimurium TA100 assessed as increase in number of revertants at 10 uM after 90 mins by Ames test; assay type: toxicity, organism-based; details: salmonella enterica subsp. enterica serovar typhimurium, 1.5 h
# Rattus norvegicus [13] = test: In vivo antagonist activity at H3 receptor in RAMH-induced dipsogenic Wistar (Krf:(WI) WU) rat model assessed as inhibition of RAMH-water intake at 1.25 mg/kg, ip administered 30 mins prior to RAMH induction; assay type: functional
# [14] = Neurotoxicity in ip dosed albino CF-1 mouse after 0.25 hrs by rotarod test; assay type: toxicity, organism-based; details: in vivo
# Mus musculus [15] = test: Anticonvulsant activity in ip dosed albino CF-1 mouse assessed as protection against maximal electroshock-induced seizures after 1 hr; assay type: functional; details: CF-1, ip
# [16] = Therapeutic index, ratio of ip dosed albino CF-1 mouse TD50 to ip dosed albino CF-1 mouse ED50 for MES assay; assay type: toxicity, organism-based; details: in vivo, read-out: TI
# Mus musculus [17] = test: Cognition enhancing effect in albino Swiss CD-1 mouse assessed as reversal of scopolamine-induced amnesia at 20 to 30 mg/kg, ip treated 30 mins prior to acquisition trial followed by scopolamine challenge immediately after acquisition trial by passive avoidance test (reference value: 39.31 +/- 4.01 secs); assay type: functional, organism-based
# Histamine H3 receptor [18] = target: T1, Histamine H3 receptor; test: Antagonist activity at human H3 receptor expressed in HEK293 cells assessed as inhibition of RAMH-induced reduction of forskolin-stimulated cAMP accumulation after 30 mins by Ulight-based TR-FRET assay; assay type: functional, cell-based
# Rattus norvegicus [19] = test: In vivo antagonist activity at H3 receptor in RAMH-induced dipsogenic ip dosed Wistar (Krf:(WI) WU) rat model assessed as inhibition of RAMH-water intake administered 30 mins prior to RAMH induction; assay type: functional
# [20] = target: Histamine H1 receptor (Cavia porcellus) (UniProt P31389); test: Agonist activity at histamine H1 receptor in guinea-pig ileum assessed as induction of contractions at 1 to 3 uM after 15 mins; assay type: functional
# [21] = target: Muscarinic acetylcholine receptor M3 (Cavia porcellus) (UniProt Q8VH26); test: Agonist activity at muscarinic M3 receptor in guinea-pig ileum assessed as induction of contractions at 1 to 3 uM after 15 mins; assay type: functional
# [22] = target: Histamine H1 receptor (Cavia porcellus) (UniProt P31389); test: Antagonist activity at histamine H1 receptor in guinea-pig ileum assessed as inhibition of histamine-induced contractions after 15 mins; assay type: functional
# Histamine H1 receptor = Histamine H1 receptor (Cavia porcellus, UniProt P31389); test: Antagonist potency at histamine H1 receptor in guinea-pig ileum assessed as inhibition of histamine-induced contractions at 0.3 to 3 uM after 15 mins; assay type: functional; details: read-out: pA2 (converted)
# Mus musculus [23] = test: Cognition enhancing effect in albino Swiss CD-1 mouse assessed as reversal of scopolamine-induced amnesia by measuring latency time at 10 mg/kg, ip treated 30 mins prior to acquisition trial followed by scopolamine challenge immediately after acquisition trial by passive avoidance test (reference value: 39.31 +/- 4.01 secs); assay type: functional
# [24] = target: Histamine H1 receptor (Homo sapiens) (UniProt P35367); test: Displacement of [3H]-pyrilamine from human histamine H1 receptor expressed in CHO cell membranes at 1 uM relative to chlorpheniramine
# [25] = target: Histamine H4 receptor (Homo sapiens) (UniProt Q9H3N8); test: Displacement of [3H]-Histamine from human histamine H4 receptor expressed in insect sf9 cell membranes at 1 uM relative to JNJ-7777120
# [26] = target: D(1A) dopamine receptor (Homo sapiens) (UniProt P21728); test: Displacement of [3H]-SCH23390 from human dopamine D1 receptor expressed in HEK293 cell membranes at 1 uM relative to fluphenazin
# [27] = target: D(1B) dopamine receptor (Homo sapiens) (UniProt P21918); test: Displacement of [3H]-SCH23390 from human dopamine D5 receptor expressed in HEK293 cell membranes at 1 uM relative to fluphenazin
# [28] = target: D(2) dopamine receptor (Homo sapiens) (UniProt P14416); test: Displacement of [3H]-spiperone from human dopamine D2 receptor expressed in CHO cell membranes at 1 uM relative to haloperidol
# [29] = target: D(3) dopamine receptor (Homo sapiens) (UniProt P35462); test: Displacement of [3H]-spiperone from human dopamine D3 receptor expressed in CHO cell membranes at 1 uM relative to haloperidol
# [30] = target: 5-hydroxytryptamine receptor 2A (Homo sapiens, UniProt P28223); test: Displacement of [3H]-ketanserin from human 5-HT2A receptor expressed in CHO cell membranes after 1 hr
# [31] = target: 5-hydroxytryptamine receptor 6 (Homo sapiens, UniProt P50406); test: Displacement of [3H]-LSD from human 5-HT6 receptor expressed in HEK293 cell membranes after 1 hr
# [32] = target: 5-hydroxytryptamine receptor 7 (Homo sapiens, UniProt P34969); test: Displacement of [3H]-5-carboxyamidotryptamine from human 5-HT7 receptor expressed in HEK293 cell membranes after 1 hr
# Histamine H3 receptor [33] = target: Histamine H3 receptor (Rattus norvegicus, UniProt Q9QYN8); test: Displacement of [3H]-(R)alpha-MeHA from rat brain H3 receptor
# Histamine H3 receptor (Rattus norvegicus, UniProt Q9QYN8), sequence (Q9QYN8 whole entry): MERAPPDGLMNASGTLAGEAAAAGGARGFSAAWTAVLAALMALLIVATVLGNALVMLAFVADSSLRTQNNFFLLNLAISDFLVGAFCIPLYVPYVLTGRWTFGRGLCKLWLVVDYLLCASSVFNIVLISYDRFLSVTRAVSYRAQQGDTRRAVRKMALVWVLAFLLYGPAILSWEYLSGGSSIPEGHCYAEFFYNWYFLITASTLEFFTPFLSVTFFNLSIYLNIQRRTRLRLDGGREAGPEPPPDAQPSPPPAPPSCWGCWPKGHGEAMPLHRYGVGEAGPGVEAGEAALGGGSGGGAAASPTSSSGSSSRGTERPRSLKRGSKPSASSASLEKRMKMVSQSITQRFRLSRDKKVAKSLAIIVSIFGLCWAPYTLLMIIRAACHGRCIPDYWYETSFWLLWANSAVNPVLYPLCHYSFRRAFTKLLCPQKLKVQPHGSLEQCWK
# T1 sequence (Q9Y5N1 whole entry): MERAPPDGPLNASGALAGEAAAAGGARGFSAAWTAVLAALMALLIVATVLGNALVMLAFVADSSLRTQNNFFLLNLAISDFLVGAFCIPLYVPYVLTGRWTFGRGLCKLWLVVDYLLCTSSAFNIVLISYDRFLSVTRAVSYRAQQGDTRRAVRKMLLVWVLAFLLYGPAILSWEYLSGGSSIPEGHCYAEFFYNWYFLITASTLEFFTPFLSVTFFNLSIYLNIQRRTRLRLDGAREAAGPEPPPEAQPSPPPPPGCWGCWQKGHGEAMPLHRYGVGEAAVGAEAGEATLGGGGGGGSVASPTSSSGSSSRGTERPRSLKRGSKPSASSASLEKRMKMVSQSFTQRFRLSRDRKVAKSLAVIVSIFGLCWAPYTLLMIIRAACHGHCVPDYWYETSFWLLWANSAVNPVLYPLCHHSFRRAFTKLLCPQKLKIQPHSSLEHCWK
# CYP3A4, sequence (P08684 whole entry): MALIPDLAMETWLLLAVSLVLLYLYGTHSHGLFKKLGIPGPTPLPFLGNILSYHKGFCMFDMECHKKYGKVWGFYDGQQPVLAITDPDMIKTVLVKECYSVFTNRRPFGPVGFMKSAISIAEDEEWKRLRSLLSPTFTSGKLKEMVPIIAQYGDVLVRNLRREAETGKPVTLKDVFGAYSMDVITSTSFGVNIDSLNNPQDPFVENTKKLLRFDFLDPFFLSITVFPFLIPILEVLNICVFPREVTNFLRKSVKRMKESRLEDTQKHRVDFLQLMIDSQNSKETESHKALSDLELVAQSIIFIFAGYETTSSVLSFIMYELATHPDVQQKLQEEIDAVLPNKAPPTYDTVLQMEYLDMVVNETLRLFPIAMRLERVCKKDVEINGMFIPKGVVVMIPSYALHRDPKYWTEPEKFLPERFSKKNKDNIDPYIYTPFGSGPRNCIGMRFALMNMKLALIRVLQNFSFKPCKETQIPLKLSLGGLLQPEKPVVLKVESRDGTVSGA
# Histamine H1 receptor (Cavia porcellus), sequence (P31389 whole entry): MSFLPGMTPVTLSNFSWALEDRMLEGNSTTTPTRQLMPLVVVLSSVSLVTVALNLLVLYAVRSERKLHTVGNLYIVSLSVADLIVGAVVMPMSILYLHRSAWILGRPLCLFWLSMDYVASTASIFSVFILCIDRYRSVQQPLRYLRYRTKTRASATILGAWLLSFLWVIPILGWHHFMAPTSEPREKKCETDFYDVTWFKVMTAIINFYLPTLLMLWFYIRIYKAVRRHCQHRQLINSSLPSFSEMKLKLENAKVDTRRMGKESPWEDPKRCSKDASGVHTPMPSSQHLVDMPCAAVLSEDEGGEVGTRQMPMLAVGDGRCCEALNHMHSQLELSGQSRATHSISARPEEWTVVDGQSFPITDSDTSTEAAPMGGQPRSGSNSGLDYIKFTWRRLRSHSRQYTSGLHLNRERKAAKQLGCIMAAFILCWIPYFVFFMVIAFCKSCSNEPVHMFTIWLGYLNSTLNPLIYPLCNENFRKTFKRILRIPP
# D(1A) dopamine receptor (Homo sapiens), sequence (P21728 whole entry): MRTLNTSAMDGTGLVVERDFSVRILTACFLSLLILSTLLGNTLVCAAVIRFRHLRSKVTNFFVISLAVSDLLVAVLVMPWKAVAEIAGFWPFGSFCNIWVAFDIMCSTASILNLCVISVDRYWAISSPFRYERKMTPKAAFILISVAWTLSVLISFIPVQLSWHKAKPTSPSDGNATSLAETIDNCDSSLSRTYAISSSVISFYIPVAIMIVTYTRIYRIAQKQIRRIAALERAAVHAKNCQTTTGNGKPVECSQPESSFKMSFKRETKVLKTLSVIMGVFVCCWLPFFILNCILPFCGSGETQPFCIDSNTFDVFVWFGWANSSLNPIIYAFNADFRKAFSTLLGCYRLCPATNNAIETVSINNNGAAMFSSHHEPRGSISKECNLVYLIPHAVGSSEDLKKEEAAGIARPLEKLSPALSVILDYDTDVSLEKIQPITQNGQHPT
# D(3) dopamine receptor (Homo sapiens), sequence (P35462 whole entry): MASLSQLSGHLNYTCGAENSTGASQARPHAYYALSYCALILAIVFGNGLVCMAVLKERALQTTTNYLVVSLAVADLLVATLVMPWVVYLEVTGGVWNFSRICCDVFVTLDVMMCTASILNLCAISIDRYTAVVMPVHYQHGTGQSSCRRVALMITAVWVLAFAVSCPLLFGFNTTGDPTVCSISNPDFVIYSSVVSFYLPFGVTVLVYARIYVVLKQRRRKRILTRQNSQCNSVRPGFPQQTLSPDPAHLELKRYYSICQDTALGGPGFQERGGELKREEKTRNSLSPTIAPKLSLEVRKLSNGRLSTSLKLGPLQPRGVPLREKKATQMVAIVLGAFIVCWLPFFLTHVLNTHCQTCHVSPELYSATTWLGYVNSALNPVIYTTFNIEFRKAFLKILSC
# Muscarinic acetylcholine receptor M3 (Cavia porcellus), sequence (Q8VH26 1-587): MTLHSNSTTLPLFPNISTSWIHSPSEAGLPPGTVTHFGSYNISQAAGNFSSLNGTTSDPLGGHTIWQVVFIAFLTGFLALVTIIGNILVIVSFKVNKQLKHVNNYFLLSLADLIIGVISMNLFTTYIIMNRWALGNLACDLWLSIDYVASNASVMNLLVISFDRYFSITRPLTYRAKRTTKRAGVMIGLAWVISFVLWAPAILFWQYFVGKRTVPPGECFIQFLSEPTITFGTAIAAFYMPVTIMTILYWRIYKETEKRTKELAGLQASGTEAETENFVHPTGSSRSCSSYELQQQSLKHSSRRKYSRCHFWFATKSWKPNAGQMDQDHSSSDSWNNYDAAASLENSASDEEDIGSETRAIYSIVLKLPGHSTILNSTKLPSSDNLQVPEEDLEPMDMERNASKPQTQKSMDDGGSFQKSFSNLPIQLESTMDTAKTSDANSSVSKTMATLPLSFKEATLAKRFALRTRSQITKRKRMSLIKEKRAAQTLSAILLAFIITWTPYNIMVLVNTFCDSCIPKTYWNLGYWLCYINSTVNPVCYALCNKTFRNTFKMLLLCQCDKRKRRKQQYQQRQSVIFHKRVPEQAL
# D(1B) dopamine receptor (Homo sapiens), sequence (P21918 whole entry): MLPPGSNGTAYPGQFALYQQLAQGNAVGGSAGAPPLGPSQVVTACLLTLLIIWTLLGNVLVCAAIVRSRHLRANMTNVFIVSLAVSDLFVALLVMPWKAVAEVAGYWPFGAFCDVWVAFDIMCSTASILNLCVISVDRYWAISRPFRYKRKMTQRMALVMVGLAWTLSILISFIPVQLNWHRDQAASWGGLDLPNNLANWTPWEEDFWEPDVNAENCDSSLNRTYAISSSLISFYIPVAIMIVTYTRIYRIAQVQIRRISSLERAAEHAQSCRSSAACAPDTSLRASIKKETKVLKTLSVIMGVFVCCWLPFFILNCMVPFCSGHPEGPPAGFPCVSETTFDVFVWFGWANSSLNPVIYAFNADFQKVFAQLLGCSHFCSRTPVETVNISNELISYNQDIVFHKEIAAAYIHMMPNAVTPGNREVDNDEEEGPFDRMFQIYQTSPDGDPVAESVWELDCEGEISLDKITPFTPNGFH
# Histamine H4 receptor (Homo sapiens), sequence (Q9H3N8 whole entry): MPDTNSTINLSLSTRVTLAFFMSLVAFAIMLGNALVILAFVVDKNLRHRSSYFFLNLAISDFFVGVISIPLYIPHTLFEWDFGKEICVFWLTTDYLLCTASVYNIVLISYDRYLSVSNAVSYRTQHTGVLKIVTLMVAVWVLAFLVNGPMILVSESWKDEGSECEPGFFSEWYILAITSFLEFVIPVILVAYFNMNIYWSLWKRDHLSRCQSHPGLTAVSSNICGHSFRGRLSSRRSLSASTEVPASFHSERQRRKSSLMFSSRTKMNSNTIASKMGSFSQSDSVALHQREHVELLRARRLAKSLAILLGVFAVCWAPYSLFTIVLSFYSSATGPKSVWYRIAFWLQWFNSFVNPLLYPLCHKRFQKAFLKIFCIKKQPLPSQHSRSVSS
# 5-hydroxytryptamine receptor 6, sequence (P50406 whole entry): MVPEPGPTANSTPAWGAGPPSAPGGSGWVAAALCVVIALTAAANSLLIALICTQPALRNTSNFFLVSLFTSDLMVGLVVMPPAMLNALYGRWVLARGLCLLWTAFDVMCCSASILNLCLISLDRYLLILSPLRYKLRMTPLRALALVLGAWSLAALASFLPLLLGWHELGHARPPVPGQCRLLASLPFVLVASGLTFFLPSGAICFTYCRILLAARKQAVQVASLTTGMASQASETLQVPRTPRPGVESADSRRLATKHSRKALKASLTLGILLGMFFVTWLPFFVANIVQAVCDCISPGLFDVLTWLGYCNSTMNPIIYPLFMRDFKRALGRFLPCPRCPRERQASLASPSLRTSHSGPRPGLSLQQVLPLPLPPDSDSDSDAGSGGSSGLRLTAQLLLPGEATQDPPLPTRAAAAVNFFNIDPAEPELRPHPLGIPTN
# Histamine H1 receptor, sequence (P31389 whole entry): as the sequence (P31389 whole entry) above
smiles,measurement,setting,value
c1ccc2cc(OCCCCCCN3CCCCCC3)ccc2c1,pKi,Histamine H3 receptor [1],7.16
COc1cccc2c1C(=O)c1c(O)c3c(c(O)c1C2=O)C[C@@](O)(C(=O)CO)C[C@@H]3O[C@H]1C[C@H](N)[C@H](O)[C@H](C)O1 [DOXORUBICIN],pIC50,HEK293,6.44
same,pIC50,IMR-32,7.30
same,pIC50,HepG2,6.26
c1ccc2cc(OCCCCCN3CCCCC3)ccc2c1,pKi,Histamine H3 receptor [1],7.27
c1ccc2cc(OCCCCCN3CCCCCC3)ccc2c1,pKi,Histamine H3 receptor [1],7.24
CC1CCN(CCCCCOc2ccc3ccccc3c2)CC1,pKi,Histamine H3 receptor [1],7.02
CC1CCCN(CCCCCOc2ccc3ccccc3c2)C1 (stereo unspecified),pKi,Histamine H3 receptor [1],7.37
CC1CCN(CCCCCOc2cccc3ccccc23)CC1,pKi,Histamine H3 receptor [1],7.36
CN1CC[C@]23c4c5ccc(O)c4O[C@H]2[C@@H](O)C=C[C@H]3[C@H]1C5 [MORPHINE],ED50,Mus musculus [2],2.38 mg/kg
CC1CCCN(CCCCCCOc2cccc3ccccc23)C1 (stereo unspecified),pKi,Histamine H3 receptor [1],7.32
c1ccc2c(OCCCCCCN3CCCCC3)cccc2c1,pKi,Histamine H3 receptor [1],7.28
c1ccc2cc(OCCCCCCN3CCCCC3)ccc2c1,pKi,Histamine H3 receptor [1],7.21
CC1CCN(CCCCCCOc2cccc3ccccc23)CC1,pKi,Histamine H3 receptor [1],6.90
CCCC(CCC)C(=O)O [VALPROIC ACID],ED50,Mus musculus [3],220 mg/kg
same,ED50,Mus musculus [4],126 mg/kg
same,ED50,Mus musculus [5],310 mg/kg
CC(=O)Oc1ccccc1C(=O)O [ASPIRIN],ED50,Mus musculus [6],25.2 mg/kg
CC1CCCN(CCCCCCOc2ccc3ccccc3c2)C1 (stereo unspecified),pKi,Histamine H3 receptor [1],7.25
CC1CCN(CCCCCCOc2ccc3ccccc3c2)CC1,pKi,Histamine H3 receptor [1],7.04
c1ccc2c(OCCCCCCN3CCCCCC3)cccc2c1,pKi,Histamine H3 receptor [1],7.16
same,Time,Mus musculus [7],87.77 s
same,Time,Mus musculus [8],68.64 s
same,ED50,Mus musculus [2],28.3 mg/kg
same,ED50,Mus musculus [6],18.1 mg/kg
same,ED50,Mus musculus [9],21.66 mg/kg
same,pKi,Histamine H3 receptor [10],7.16
CC1CCCN(CCCCCOc2cccc3ccccc23)C1 (stereo unspecified),pKi,Histamine H3 receptor [1],7.48
same,pIC50,HEK293,< 4.30
same,pIC50,IMR-32,4.49
same,pIC50,HepG2,4.41
same,inhibition at 25 µM,CYP3A4,50%
same,Activity,Salmonella typhimurium [11],Non-Toxic
same,Activity,Salmonella typhimurium [12],Non-Toxic
Clc1ccc(CCCOCCCN2CCCCC2)cc1 [PITOLISANT],inhibition in vivo at 1.25 mg/kg,Rattus norvegicus [13],87.4%
Nc1nnc(-c2cccc(Cl)c2Cl)c(N)n1 [LAMOTRIGINE],TD50 at 0.25 h,[14],30 mg/kg
same,ED50,Mus musculus [15],7.47 mg/kg
same,ED50,Mus musculus [3],> 40 mg/kg
same,ED50,Mus musculus [4],> 60 mg/kg
same,ED50,Mus musculus [5],> 60 mg/kg
same,selectivity ratio,[16],4
c1ccc2c(OCCCCCN3CCCCCC3)cccc2c1,Activity,Mus musculus [17],inactive
same,pKi,Histamine H3 receptor [1],7.66
same,pIC50,Histamine H3 receptor [18],6.51
same,inhibition,Histamine H3 receptor [18],Dose-dependent effect
same,ED50,Rattus norvegicus [19],3.68 mg/kg
same,Activity,[20],inactive
same,Activity,[21],inactive
same,inhibition,[22],Dose-dependent effect
same,Kb,Histamine H1 receptor,708 nM
same,Time,Mus musculus [7],91.47 s
same,Time,Mus musculus [23],83.61 s
same,ED50,Mus musculus [2],30.6 mg/kg
same,ED50,Mus musculus [6],20.8 mg/kg
same,ED50,Mus musculus [9],20.47 mg/kg
same,inhibition,[24],19%
same,inhibition,[25],29%
same,inhibition,[26],14%
same,inhibition,[27],-10%
same,inhibition,[28],12%
same,inhibition,[29],17%
same,pKi,[30],5.58
same,pKi,[31],5.74
same,pKi,[32],5.55
same,pIC50,HEK293,< 4.30
same,pIC50,IMR-32,4.45
same,pIC50,HepG2,4.60
same,inhibition at 25 µM,CYP3A4,50%
same,Activity,Salmonella typhimurium [11],Non-Toxic
same,Activity,Salmonella typhimurium [12],Non-Toxic
S=C(NC1CCCCC1)N1CCC(c2cnc[nH]2)CC1 [THIOPERAMIDE],pKi,Histamine H3 receptor [33],8.68
